Earlier results, collected in patent US20120035103A1 (priority 2010, published 2012).

Tested on: cells that line the nasal cavity

Appearance of the cells that line the nasal cavity (0.50% TDM, versus 0.125% TDM): became more evident
Compound: CCCCCCCCCCCCCCO[C@@H]1O[C@H](CO)[C@@H](O[C@H]2O[C@H](CO)[C@@H](O)[C@H](O)[C@H]2O)[C@H](O)[C@H]1O [TDM, Tetradecyl-β-d-maltoside]
Toxicity to the cells that line the nasal cavity (0.125% TDM): minimal toxicity
